Assay results as given in patent US9169481B2, “Cell-mediated directed evolution” (priority 2006, dated 2015).
pKd: −log10 of the molar value. Several values for one entry are separate records, joined by “and”; a condition that tells them apart may be missing. Identical values can stand only once.

Experiments:
[1] = test system: D-2-deoxyribose-5-phosphate aldolase (DERA) variant; details: directed evolution with in vitro screen; DeSantis et al., 2003; cited from earlier work
[2] = biological target: lipocalin (de novo selected); details: Beste et al., 1999; read-out: dissociation constant; cited from earlier work
[3] = test system: Erwinia carotovora CelN/CelA/CelV shuffled variant Cellulase 2 (Cel_5.7), vs CelN: A86V, S126N, E154D, T172S, C208R, T262S, A267T, A272T; SEQ ID NO:6; experiment: Steady-state kinetics of pNPC hydrolysis, Cellulase 2; format: biochemical
Procedure: (§1) Ten colonies selected on day 8 and 9 were characterized in vitro using para-nitrophenyl cellobioside (pNPC) as a substrate. The cellulase chimeras were amplified from the shuffling vector using primers PPY100 and PPY103 and subcloned into the T7-expression vectors pAED4 between NdeI and HindIII sites. The cellulase chimeras were over expressed in E. coli and purified using a Nickel affinity column. Protein concentration was determined using the extinction coefficient of the parent genes ε=76890 and absorption at A280. To determine the kinetic constants for the hydrolysis of pNPC, the cellulase chimeras were incubated at room temperature in phosphate buffer (25 mM K2HPO4, 100 mM NaCl, pH=7) containing various concentrations of the substrate, and the release of p-nitrophenol (εpH=7=4000M^−1 cm^−1, A420) was recorded continuously in a SpectraMax Plus 384 spectrophotometer.
(§2) The three starting cellulases and the improved cellulase variants were subcloned into the E. coli T7 vector, pAED4, between NdeI and HindIII sites to give vectors pPPY2256 (CelN), pPPY2258 (CelA), pPPY2257 (CelV), pPPY2291 (Cel—3.7), and pPPY2292 (Cel—5.7). The cellulases were purified using Quick spin Ni-NTA affinity column (Qiagen). Protein concentration was determined using the extinction coefficient of the starting genes (ε=76670) and absorption at 280 nm. To determine the kinetic constants for the hydrolysis of pNPC, the cellulase chimeras were incubated at room temperature in phosphate buffer (25 mM K2HPO4, 100 mM NaCl, pH 7) containing seven different concentrations of pNPC ranging from 12 mM to 0.185 mM. The release of p-nitrophenol (εpH 7=4000M−1 cm−1, A420) was recorded continuously in a SpectraMax Plus 384 spectrophotometer at 420 nm.
A homology model of Cel—5.7 (cellulase 2) was made, again utilizing the same structure of B. agaradherans Cel5A, using Swiss-Model (FIG. 28b)^38. Four mutations are in the C-terminus loops that compose the extended carbohydrate binding site, while the other 4 map onto the surface of the enzyme. Although mutation T172S is located in C-terminus loop 5, it is 15 Å away from closest hexose ring in the substrate inhibitor. Mutations T262S, A267T, A272T are located in C-terminus loop 8. The mutation T262S is the closest to the substrate inhibitor, 6 Å away from the 6′-OH of the hexose ring in the −3 subsite. […] This mutation is located at the N-terminus of the barrel and points towards the solvent.

[4] = test system: Erwinia carotovora shuffled cellulase variant Cellulase 6, SEQ ID NO:12; experiment: Steady-state kinetics of pNPC hydrolysis, Cellulase 6; format: biochemical; details: pH 7, room temperature
Procedure: as §1, §2

[5] = biological target: Erwinia carotovora cellulase CelN (Cellulase N), catalytic domain, parent (Pectobacterium atrosepticum, UniProt Q59394); experiment: Steady-state kinetics of pNPC hydrolysis (release of p-nitrophenol), CelN; format: biochemical; details: pH 7, room temperature
Erwinia carotovora cellulase CelN (Cellulase N), catalytic domain, parent, sequence (Q59394 32-444): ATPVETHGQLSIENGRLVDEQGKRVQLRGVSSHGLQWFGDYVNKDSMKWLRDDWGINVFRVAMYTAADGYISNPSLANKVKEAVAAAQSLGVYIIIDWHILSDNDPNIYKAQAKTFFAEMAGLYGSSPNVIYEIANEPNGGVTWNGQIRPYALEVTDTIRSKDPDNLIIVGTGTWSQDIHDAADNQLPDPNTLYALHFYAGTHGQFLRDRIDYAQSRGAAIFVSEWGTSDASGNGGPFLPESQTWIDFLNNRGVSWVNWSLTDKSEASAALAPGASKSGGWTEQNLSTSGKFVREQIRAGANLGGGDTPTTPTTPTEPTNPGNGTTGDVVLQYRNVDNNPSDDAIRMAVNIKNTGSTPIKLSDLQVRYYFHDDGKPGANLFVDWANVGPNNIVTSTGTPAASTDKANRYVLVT
Description: (§3) The DNA shuffling vector, pPPY2148, was constructed by digesting p425Met25 (ATCC) with HindIII and PstI and introducing an 800 bp stuffer flanked by SfiI sites. The catalytic domain of four family 5 cellulases with 77-90% sequence identity, E. carotovora CelN (Olsen et al., 1996, Biotechnology (N Y) 14:71-76), CelVI (Mae and Palva, 1995, Mol Gen Genet. 247:17-26), CelA (Park et al., 1997, Biochem Biophys Res Commun. 241:636-641) and CelT (cloned from the E. carotovora subs. atroceptica (Bell et al., 2004, Proc Natl Acad Sci USA. 101: 11105-11110) genomic DNA) were cloned into pPY2148 to create plasmids pPPY2230, pPPY2232, pPPY2234 and pPPY2236 respectively. A ^6His-tag was added at the C-terminus of the four parent genes to facilitate protein purification after selection. The catalytic domain of these cellulases was identified by sequence comparison with the catalytic domain of Bacillus agaradhaerens Cel5A, which has 68% sequence identity at the amino acid level with the parent genes and which three dimensional X-ray structure is available (Davies et al., 1998, Biochemistry 37: 1926-1932; Davies et al., 1998, Biochemistry 37: 11707-11713; Varrot et al., 2000, J Mol Biol. 297: 819-828; Varrot et al., 2001, Acta Crystallogr D Biol Crystallogr. 57: 1739-1742; Varrot and Davies, 2003, Acta Crystallogr D Biol Crystallogr. 59: 447-452). The cellulase genes were shuffled using standard procedures with slight variations (Zhao and Arnold, 1997, Nucleic Acids Res. 25: 1307-1308). To introduce the shuffled product into the shuffling vector via homologous recombination, 30 bp homology to the shuffling vector was introduced at the 5′ and 3′ end of the shuffled product by carrying an extra amplification step of the shuffling product primers VC1658-VC1659. 7.5 ng of shuffled product (1.4E11 shuffled product molecules assuming each base pair is 330M and the shuffled product was 1000 bp) was used as a template in a 100 ul amplification reaction. The product was purified in a 2% agarose gel.
as §1
as §2, with “To determine the kinetic constants for the hydrolysis of pNPC, the cellulase chimeras were incubated at room temperature in phosphate buffer (25 mM K2HPO4, 100 mM NaCl, pH 7) containing seven different concentrations of pNPC ranging from 12 mM to 0.185 mM.” left out

[6] = test system: Erwinia carotovora shuffled cellulase variant Cellulase 7, SEQ ID NO:14; experiment: Steady-state kinetics of pNPC hydrolysis, Cellulase 7; format: biochemical; details: pH 7, room temperature
Procedure: as §1, §2

[7] = test system: Erwinia carotovora shuffled cellulase variant Cellulase 8, SEQ ID NO:16; experiment: Steady-state kinetics of pNPC hydrolysis, Cellulase 8; format: biochemical; details: pH 7, room temperature
Procedure: as §1, §2

[8] = test system: Erwinia carotovora CelN/CelA/CelV shuffled variant Cellulase 1 (CELLVAR2, Colony 2, Cel_3.7), vs CelN: S126N, D157E, Q186L, L193M, V2541, T288A, E295A, G30A …; experiment: Steady-state kinetics of pNPC hydrolysis, Cellulase 1; format: biochemical
Procedure: as §1, §2
Cel—3.7 (cellulase 1) contains nine crossovers. […] A homology model of Cel—3.7 (cellulase 1) was made, utilizing the B. agaradherans Cel5A structure (SwissProt: O85465; PDB: 1h5v) with the inhibitor methyl 4,4II,4III,4IV-tetrathio-α-cellopentoside bound to the active site, using Swiss-Model (FIG. 28A). The eight mutations accessible with the homology model map onto the surface of the enzyme, away from the extended carbohydrate binding site.

[9] = test system: Erwinia carotovora shuffled cellulase variant Cellulase 4 (CELLVAR1, Colony 1), SEQ ID NO:3; experiment: Steady-state kinetics of pNPC hydrolysis, Cellulase 4; format: biochemical; details: pH 7, room temperature
Procedure: as §1, §2

[10] = test system: Erwinia carotovora cellulase CelA (Cellulase A), catalytic domain, parent; experiment: Steady-state kinetics of pNPC hydrolysis (release of p-nitrophenol), CelA; format: biochemical; details: pH 7, room temperature
Description: as §3, with “To introduce the shuffled product into the shuffling vector via homologous recombination, 30 bp homology to the shuffling vector was introduced at the 5′ and 3′ end of the shuffled product by carrying an extra amplification step of the shuffling product primers VC1658-VC1659. 7.5 ng of shuffled product (1.4E11 shuffled product molecules assuming each base pair is 330M and the shuffled product was 1000 bp) was used as a template in a 100 ul amplification reaction. The product was purified in a 2% agarose gel.” left out
as §1, with “The cellulase chimeras were amplified from the shuffling vector using primers PPY100 and PPY103 and subcloned into the T7-expression vectors pAED4 between NdeI and HindIII sites. The cellulase chimeras were over expressed in E. coli and purified using a Nickel affinity column.” left out
The three starting cellulases and the improved cellulase variants were subcloned into the E. coli T7 vector, pAED4, between NdeI and HindIII sites to give vectors pPPY2256 (CelN), pPPY2258 (CelA), pPPY2257 (CelV), pPPY2291 (Cel—3.7), and pPPY2292 (Cel—5.7). […] Protein concentration was determined using the extinction coefficient of the starting genes (ε=76670) and absorption at 280 nm. […] The release of p-nitrophenol (εpH 7=4000M−1 cm−1, A420) was recorded continuously in a SpectraMax Plus 384 spectrophotometer at 420 nm.

[11] = test system: Erwinia carotovora shuffled cellulase variant Cellulase 3, SEQ ID NO:8; experiment: Steady-state kinetics of pNPC hydrolysis, Cellulase 3; format: biochemical; details: pH 7, room temperature
Procedure: as §1, §2

[12] = test system: Erwinia carotovora shuffled cellulase variant Cellulase 5, SEQ ID NO:10; experiment: Steady-state kinetics of pNPC hydrolysis, Cellulase 5; format: biochemical; details: pH 7, room temperature
Procedure: as §1, §2

[13] = biological target: Erwinia carotovora cellulase CelV (Cellulase V; = CelT, Cellulase T), catalytic domain, parent (Pectobacterium atrosepticum, UniProt Q6D5R0); experiment: Steady-state kinetics of pNPC hydrolysis (release of p-nitrophenol), CelT = CelV; format: biochemical; details: pH 7, room temperature
Erwinia carotovora cellulase CelV (Cellulase V; = CelT, Cellulase T), catalytic domain, parent, sequence (Q6D5R0 entry or part of it): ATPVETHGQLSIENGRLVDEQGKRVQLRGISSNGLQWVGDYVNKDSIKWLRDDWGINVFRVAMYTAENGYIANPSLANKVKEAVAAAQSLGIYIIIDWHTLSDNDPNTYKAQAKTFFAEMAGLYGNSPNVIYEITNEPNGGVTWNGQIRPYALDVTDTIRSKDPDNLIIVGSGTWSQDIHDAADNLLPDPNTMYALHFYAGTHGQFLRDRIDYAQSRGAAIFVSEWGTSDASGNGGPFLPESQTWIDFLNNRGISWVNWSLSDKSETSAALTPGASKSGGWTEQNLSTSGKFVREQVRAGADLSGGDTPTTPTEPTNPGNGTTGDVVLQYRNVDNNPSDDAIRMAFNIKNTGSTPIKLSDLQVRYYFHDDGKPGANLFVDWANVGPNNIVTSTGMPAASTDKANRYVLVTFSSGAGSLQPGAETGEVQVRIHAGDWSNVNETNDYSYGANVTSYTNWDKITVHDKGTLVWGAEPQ
Description: as §3, §1
The three starting cellulases and the improved cellulase variants were subcloned into the E. coli T7 vector, pAED4, between NdeI and HindIII sites to give vectors pPPY2256 (CelN), pPPY2258 (CelA), pPPY2257 (CelV), pPPY2291 (Cel—3.7), and pPPY2292 (Cel—5.7). The cellulases were purified using Quick spin Ni-NTA affinity column (Qiagen). Protein concentration was determined using the extinction coefficient of the starting genes (ε=76670) and absorption at 280 nm. […] The release of p-nitrophenol (εpH 7=4000M−1 cm−1, A420) was recorded continuously in a SpectraMax Plus 384 spectrophotometer at 420 nm.

O=C[C@H](O)CO [D-glyceraldehyde]
improvement in catalytic efficiency [1]: 2.5 fold

O=C1OC2(c3ccc(O)cc3Oc3cc(O)ccc32)c2ccccc21 [fluorescein]
pKd [2]: 7.19

O=[N+]([O-])c1ccc(O[C@@H]2O[C@H](CO)[C@@H](O[C@@H]3O[C@H](CO)[C@@H](O)[C@H](O)[C@H]3O)[C@H](O)[C@H]2O)cc1 [pNPC, p-nitrophenyl cellobioside]
Kcat ([3]; pH 7, room temperature): 5200 s⁻¹ | Kcat/Km ([3]; pH 7, room temperature): 2.1 × 10^6 sec^−1M^−1 and 2.1 × 10^6 M^−1sec^−1 | Km ([3]; pH 7, room temperature): 2500 µM and 2470 µM | increase in catalytic efficiency over the best starting cellulase, CelN ([3]; relative to CelN): 5.3 fold and 5.7 fold | Kcat [4]: 210 s⁻¹ | Kcat/Km [4]: 220000 M⁻¹ s⁻¹ | Km [4]: 960 µM and 1000 µM | Kcat [5]: 1300 s⁻¹ | Kcat/Km [5]: 370000 M⁻¹ s⁻¹ | Kcat [6]: 110 s⁻¹ | Kcat/Km [6]: 8120 M⁻¹ s⁻¹ and 8100 M⁻¹ s⁻¹ | Km [6]: 14000 µM | Kcat [7]: 840 s⁻¹ | Kcat/Km [7]: 200000 M⁻¹ s⁻¹ | Km [7]: 4300 µM | Kcat ([8]; pH 7, room temperature): 4300 s⁻¹ | Kcat/KM ([8]; pH 7, room temperature): 1.3e+06 M⁻¹ s⁻¹ | Kcat/Km ([8]; pH 7, room temperature): 1.4 × 10^6 sec^−1M^−1 and 1.4 × 10^6 M^−1sec^−1 | Km ([8]; pH 7, room temperature): 3200 µM | increase in catalytic efficiency over the best starting cellulase, CelN ([8]; relative to CelN): 3.6 fold and 3.7 fold | Kcat [9]: 16000 s⁻¹ | Kcat/KM [9]: 1.2e+07 M⁻¹ s⁻¹ | Kcat/Km [9]: 1.1e+07 M⁻¹ s⁻¹ | Km [9]: 1300 µM | Kcat [10]: 1400 s⁻¹ | Kcat/KM [10]: 193000 M⁻¹ s⁻¹ | Kcat/Km [10]: 192000 M⁻¹ s⁻¹ | Km [10]: 7200 µM | Kcat [11]: 5000 s⁻¹ | Kcat/Km [11]: 1.4 × 10^6 sec^−1M^−1 and 1.4 × 10^6 M^−1sec^−1 | Km [11]: 3600 µM | Kcat [12]: 6700 s⁻¹ | Kcat/Km [12]: 4.5e+06 M⁻¹ s⁻¹ | Km [12]: 1500 µM | Kcat [13]: 1100 s⁻¹ | Kcat/Km [13]: 240000 M⁻¹ s⁻¹
